Laboratory results published in ChEMBL document CHEMBL4311970 (Eur J Med Chem, 2019).
pIC50: −log10 of the molar value. Activity calls are given as the source filed them. No cut-off for these calls is given here.

Columns and labels:
[1] = target: T1, M-phase inducer phosphatase 1 (Homo sapiens) (UniProt P30304); assay: Inhibition of recombinant human Cdc25A at 10 uM using OMFP as substrate preincubated for 5 to 8 mins and measured every 5 mins 60 mins by fluorescence based assay relative to control
T1 sequence (whole entry): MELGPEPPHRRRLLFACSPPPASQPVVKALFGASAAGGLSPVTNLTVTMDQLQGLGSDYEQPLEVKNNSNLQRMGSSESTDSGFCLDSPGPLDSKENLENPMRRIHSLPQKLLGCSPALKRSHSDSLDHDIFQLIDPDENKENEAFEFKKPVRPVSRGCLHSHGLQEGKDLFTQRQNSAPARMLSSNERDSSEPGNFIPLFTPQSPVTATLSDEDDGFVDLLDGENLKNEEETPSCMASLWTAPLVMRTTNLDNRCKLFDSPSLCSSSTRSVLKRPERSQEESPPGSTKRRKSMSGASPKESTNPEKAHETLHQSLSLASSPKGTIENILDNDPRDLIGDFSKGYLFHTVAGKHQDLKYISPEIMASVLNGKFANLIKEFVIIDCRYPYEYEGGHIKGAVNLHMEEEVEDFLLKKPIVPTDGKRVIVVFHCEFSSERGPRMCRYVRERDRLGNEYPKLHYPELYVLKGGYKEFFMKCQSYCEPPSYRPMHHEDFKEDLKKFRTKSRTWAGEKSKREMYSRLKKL

[2] = target: T2, M-phase inducer phosphatase 2 (Homo sapiens) (UniProt P30305); assay: Inhibition of recombinant human Cdc25B at 10 uM using OMFP as substrate preincubated for 5 to 8 mins and measured every 5 mins 60 mins by fluorescence based assay
T2 sequence (whole entry): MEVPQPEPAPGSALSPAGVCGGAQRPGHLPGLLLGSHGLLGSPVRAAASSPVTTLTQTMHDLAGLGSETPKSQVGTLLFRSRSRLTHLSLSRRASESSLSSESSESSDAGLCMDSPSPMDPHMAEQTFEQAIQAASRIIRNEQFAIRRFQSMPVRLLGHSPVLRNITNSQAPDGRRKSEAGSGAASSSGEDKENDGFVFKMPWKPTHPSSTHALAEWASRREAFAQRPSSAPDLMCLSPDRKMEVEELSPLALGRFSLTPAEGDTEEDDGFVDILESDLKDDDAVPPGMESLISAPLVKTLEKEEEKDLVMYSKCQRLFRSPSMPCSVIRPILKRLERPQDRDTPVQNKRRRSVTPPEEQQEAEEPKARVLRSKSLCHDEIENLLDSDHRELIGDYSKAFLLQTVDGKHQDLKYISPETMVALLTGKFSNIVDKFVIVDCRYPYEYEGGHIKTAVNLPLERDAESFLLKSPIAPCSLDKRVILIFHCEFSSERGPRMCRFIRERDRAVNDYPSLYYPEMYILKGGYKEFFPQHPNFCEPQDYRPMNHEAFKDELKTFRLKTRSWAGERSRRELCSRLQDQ

[3] = target: T3, M-phase inducer phosphatase 3 (Homo sapiens) (UniProt P30307); assay: Inhibition of recombinant human Cdc25C at 10 uM using OMFP as substrate preincubated for 5 to 8 mins and measured every 5 mins 60 mins by fluorescence based assay
T3 sequence (whole entry): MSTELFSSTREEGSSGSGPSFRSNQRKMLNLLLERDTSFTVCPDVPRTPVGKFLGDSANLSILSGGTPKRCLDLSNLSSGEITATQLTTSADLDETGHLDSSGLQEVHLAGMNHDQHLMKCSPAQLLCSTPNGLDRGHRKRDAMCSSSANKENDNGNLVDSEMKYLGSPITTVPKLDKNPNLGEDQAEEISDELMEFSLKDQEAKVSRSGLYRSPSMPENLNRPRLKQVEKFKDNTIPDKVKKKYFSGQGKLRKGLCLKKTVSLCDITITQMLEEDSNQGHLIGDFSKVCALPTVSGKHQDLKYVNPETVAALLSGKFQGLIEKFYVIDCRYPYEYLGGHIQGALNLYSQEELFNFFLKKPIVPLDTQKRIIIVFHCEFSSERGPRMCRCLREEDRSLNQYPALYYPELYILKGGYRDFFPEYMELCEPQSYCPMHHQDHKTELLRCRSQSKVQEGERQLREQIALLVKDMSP

KB = assay: Antiproliferative activity against human KB cells assessed as reduction in cell viability incubated for 72 hrs by SRB assay; assay type: functional, cell-based
MDA-MB-231 = assay: Antiproliferative activity against human MDA-MB-231 cells assessed as reduction in cell viability incubated for 72 hrs by SRB assay; assay type: functional, cell-based; conditions: MDA-MB-231, 72 h
[4] = target: T4, M-phase inducer phosphatase 2 (Homo sapiens, UniProt P30305); assay: Inhibition of recombinant human Cdc25B using OMFP as substrate preincubated for 5 to 8 mins and measured every 5 mins 60 mins by fluorescence based assay
T4 sequence (P30305 whole entry): T2 sequence (whole entry)

[5] = target: T5, M-phase inducer phosphatase 3 (Homo sapiens, UniProt P30307); assay: Inhibition of recombinant human Cdc25C using OMFP as substrate preincubated for 5 to 8 mins and measured every 5 mins 60 mins by fluorescence based assay
T5 sequence (P30307 whole entry): T3 sequence (whole entry)

A549 = assay: Antiproliferative activity against human A549 cells assessed as reduction in cell viability incubated for 72 hrs by SRB assay; assay type: functional, cell-based; conditions: A549, 72 h
[6] = Cytotoxicity against human NHBE cells assessed as reduction in cell viability incubated for 72 hrs by SRB assay; assay type: cell-based
MCF7 = assay: Antiproliferative activity against human MCF7 cells assessed as reduction in cell viability incubated for 72 hrs by SRB assay; assay type: functional, cell-based; conditions: MCF7, 72 h
[7] = Antiproliferative activity against human KBVIN cells assessed as reduction in cell viability incubated for 72 hrs by SRB assay; assay type: functional, cell-based
[8] = target: T6, M-phase inducer phosphatase 1 (Homo sapiens, UniProt P30304); assay: Inhibition of recombinant human Cdc25A using OMFP as substrate preincubated for 5 to 8 mins and measured every 5 mins 60 mins by fluorescence based assay
T6 sequence (P30304 whole entry): T1 sequence (whole entry)

Homo sapiens [9] = organism: Homo sapiens; assay: Selectivity index, ratio of IC50 for recombinant human Cdc25A to IC50 for recombinant human Cdc25C
[10] = target: T3, M-phase inducer phosphatase 3 (Homo sapiens); assay: Potency index, ratio of IC50 of NSC663284 to IC50 of compound for inhibition of recombinant human Cdc25C using OMFP as substrate preincubated for 5 to 8 mins and measured every 5 mins 60 mins by fluorescence based assay
Homo sapiens [11] = organism: Homo sapiens; assay: Selectivity index, ratio of IC50 for recombinant human Cdc25B to IC50 for recombinant human Cdc25C

N#Cc1cccc(Cn2cc(CNC3=C(Cl)C(=O)c4cccnc4C3=O)nn2)c1
inhibition [1]: 69.1% | inhibition [2]: Active | inhibition [3]: Active | pIC50 (KB): 5.30 | pIC50 (MDA-MB-231): 5.31 | pIC50 [4]: 6.00 | pIC50 [5]: 6.68 | pIC50 (A549): 5.31 | pIC50 [6]: 5.19 | pIC50 (MCF7): 5.32 | pIC50 [7]: 4.93 | pIC50 [8]: 6.27

Cc1ccc(Cn2cc(CNC3=C(Cl)C(=O)c4cccnc4C3=O)nn2)cc1
Ratio IC50 (Homo sapiens [9]): 6 | inhibition [1]: 74.4% | inhibition [2]: Active | Ratio IC50 [10]: 9 | Ratio IC50 (Homo sapiens [11]): 15 | inhibition [3]: Active | pIC50 (KB): 5.30 | pIC50 (MDA-MB-231): 5.33 | pIC50 [4]: 5.86 | pIC50 [5]: 7.05 | pIC50 (A549): 5.41 | pIC50 [6]: 5.22 | pIC50 (MCF7): 5.33 | pIC50 [7]: 5.17 | pIC50 [8]: 6.28

O=C1C(Cl)=C(NCCN2CCOCC2)C(=O)c2ncccc21
inhibition [1]: 48.4% | inhibition [2]: Active | inhibition [3]: Active | pIC50 (KB): 5.31 | pIC50 (MDA-MB-231): 5.30 | pIC50 (A549): 5.56 | pIC50 [6]: 5.48 | pIC50 (MCF7): 6.00 | pIC50 [7]: 5.31

N#Cc1ccccc1Cn1cc(CNC2=C(Cl)C(=O)c3cccnc3C2=O)nn1
inhibition [1]: 57.2% | inhibition [2]: Active | inhibition [3]: Active | pIC50 (KB): 5.29 | pIC50 (MDA-MB-231): 5.31 | pIC50 [4]: 5.55 | pIC50 [5]: 6.38 | pIC50 (A549): 5.35 | pIC50 [6]: 5.66 | pIC50 (MCF7): 5.33 | pIC50 [7]: 5.04 | pIC50 [8]: 5.92

CC(=O)O[C@H]1C(=O)[C@@]2(C)[C@H]([C@H](OC(=O)c3ccccc3)[C@]3(O)C[C@H](OC(=O)[C@H](O)[C@@H](NC(=O)c4ccccc4)c4ccccc4)C(C)=C1C3(C)C)[C@]1(OC(C)=O)CO[C@@H]1C[C@@H]2O [PACLITAXEL]
pIC50 (A549): 8.12 | pIC50 [6]: 4.44 | pIC50 [7]: 5.50
